Patent publication EP4029501A1, “COMBINATION OF POLYAROMATIC UREA DERIVATIVES AND GLUCOCORTICOID OR HDAC INHIBITOR FOR THE TREATMENT OF DISEASES OR CONDITIONS ASSOCIATED WITH MUSCLE CELLS AND/OR SATELLITE CELLS” (Anagenesis Biotechnologies, priority 2021, dated 2022)

Tested on: muscle progenitors derived from DMD hiPSC
Assay: Myotube assay: total myotube area per well (alpha-actinin staining)
Type: cell-based, human
Details: Homo sapiens, Myotube, 72 h, DMD or WT cell source not given; for Emax: efficacy, MA = normalized Myotube Area, 3 days incubation; for EC50: myogenic activity, half-maximal generation of myotubes, 10 points dose-response 1.5 nM to 30 µM, 3 days
Description: An in vitro assay for assessing the efficacy of compounds for use in treating, ameliorating, delaying, curing and/or preventing a disease or condition associated with muscle cells and/or satellite cells is described in example 78. Herein, the generation of myotubes and satellite cells after adding a compound to a myotube assay workflow is assessed. Said myotube assay workflow is derived from wild-type or DMD human induced pluripotent stem cells (WT hiPSC or DMD hiPSC). Before the addition of said compound, the assay comprises satellite-like cells, but no significant amount of myotubes.
The efficacy of said compound for use in treating, ameliorating, delaying, curing and/or preventing a disease or condition associated with muscle cells and/or satellite cells is positively correlated with the generation of myotubes (i.e. the increase of the area occupied by myotubes on the assay) and/or satellite cells (i.e. the increase of the number of satellite cells) in the assay after adding said compound. The generation of myotubes by the addition of said compound is expressed as the EC50 value, the concentration of said compound that corresponds with the half-maximal generation of myotubes, and the MA (normalized myotube area) value, the normalized area occupied by generated myotubes on the assay. […] Since muscle cells are formed from myotubes during myogenesis, the generation of myotubes in the assay is a good indicator of the ability of said compound to induce the formation of functional muscle cells in vivo. The number of satellite cells is measured as the percentage of Pax7 positive cells, relative to the total number of cells in the assay, as shown in Figure 3. The percentage of Pax7 is a good indicator of the ability of said compound to induce the formation of satellite cells which are able to play a role in muscle repair and regeneration in vivo.
DMD human induced pluripotent stem cells (hereafter "DMD hiPSC"), generated from the NCRM-1 hiPSC WT cell line by gene editing, or WT human induced pluripotent stem cells (hereafter "WT hiPSC"), being NCRM-1 hiPSC wt cell line, have been differentiated according to Chal et al. 2015, 2016, to produce muscle progenitors (hereafter "hMP"). The hMP population contains satellite-like cells (i.e Pax7-positive cells) and satellite cells' progenies (i.e. Myogenin-positive cells).
Figure 1 provides an example of a Myotube assay workflow. At day 0, hMP are thawed and 3.1 million cells are plated into a T75-flask coated with hESC-qualified Matrigel™ (Corning) in SkGM proliferating medium (PromoCells), supplemented with 5 µM Y-27632 (Tocris Bioscience). On day 2, SkGM proliferating medium is refreshed. On day 4, hMP are harvested and transferred into a 384-well plate coated with collagen type I at a density of 3500 cells/well in a DMEM-based medium, containing 5% of knockout serum replacement (Gibco), 1% PenStrep (Gibco), 1% MEM NEAA (Gibco) and 0.1 mM 2-mercaptoethanol (Gibco) (hereafter "K5 medium") and 5 µM Y-27632. Compounds to be tested are then added in the medium and incubated for 3 days at 37°C. On day 7, cells are fixed and immunostained. For example, myotubes (alpha-actinin staining) and satellite-like (Pax7 staining) cells can be analyzed for total myotube area per well or Pax7-positive cell quantification.
DMD hMP were put in the Myotube assay according to the workflow described in Example 2.1. In particular, compound (i) was added at concentrations ranging from 1.5 nM to 30 µM, starting from day 4. hMP were cultivated for three more days in presence of compound (i), then fixed and analyzed for quantification of total myotube area per well. Duplicates of each condition were averaged.

Row | Structure (SMILES) | Emax | EC50
1 | CC(C)(C)c1cc(NC(=O)Nc2ccc(Oc3ccnc4[nH]c(=O)cnc34)cc2F)n(Cc2ccccc2)n1 [(j), 1-(1-benzyl-3-(tert-butyl)-1 H-pyrazol-5-yl)-3-(2-fluoro-4-((3-oxo-3,4-dihydropyrido[2,3-b]pyrazin-8-yl)oxy)phenyl)urea] | 50 to 75% | 1000 to 5000 nM
2 | CSc1cc(Oc2ccnc3[nH]c(=O)cnc23)ccc1NC(=O)Nc1cc(C(C)(C)C)nn1-c1ccc(OCCCN(C)C)cc1 [(cr), 1-(3-(tert-butyl)-1-(4-(3-(dimethylamino)propoxy)phenyl)-1H-pyrazol-5-yl)-3-(2-(methylthio)-4-((3-oxo-3,4-dihydropyrido[2,3-b]pyrazin-8-yl)oxy)phenyl)urea] | ≥ 75% | < 500 nM
3 | CC(C)(C)c1cnc(NC(=O)Nc2ccc(Oc3ccnc4c3CCC(=O)N4)c3ccccc23)s1 [(cu), 1-(5-(tert-butyl)thiazol-2-yl)-3-(4-((7-oxo-5,6,7,8-tetrahydro-1,8-naphthyridin-4-yl)oxy)naphthalen-1-yl)urea] | ≥ 75% | < 500 nM
4 | CSc1cc(Oc2ccnc3[nH]c(=O)cnc23)ccc1NC(=O)Nc1cc(C(C)(C)C)nn1-c1ccc2ncccc2c1 [(bm), 1-(3-(tert-butyl)-1-(quinolin-6-yl)-1 H-pyrazol-5-yl)-3-(2-(methylthio)-4-((3-oxo-3,4-dihydropyrido[2,3-b]pyrazin-8-yl)oxy)phenyl)urea] | ≥ 75% | < 500 nM
5 | CC(C)(C)c1nc(NC(=O)Nc2ccc(Oc3ccnc4[nH]c(=O)cnc34)cc2F)n(-c2ccccc2)n1 [(p), 1-(3-(tert-butyl)-1-phenyl-1 H-1,2,4-triazol-5-yl)-3-(2-fluoro-4-((3-oxo-3,4-dihydropyrido[2,3-b]pyrazin-8-yl)oxy)phenyl)urea] | 25 to 50% | 500 to 1000 nM
6 | CC(C)c1cc(Oc2ccnc3[nH]c(=O)cnc23)ccc1NC(=O)Nc1cc(C(C)(C)C)nn1-c1ccccc1 [(bk), 1-(3-(tert-butyl)-1-phenyl-1H-pyrazol-5-yl)-3-(2-isopropyl-4-((3-oxo-3,4-dihydropyrido[2,3-b]pyrazin-8-yl)oxy)phenyl)urea] | ≥ 75% | ≥ 5000 nM
7 | CC(C)(C)c1nnc(NC(=O)Nc2ccc(Oc3ccnc4[nH]c(=O)cnc34)cc2F)s1 [(r), 1-(5-(tert-butyl)-1,3,4-thiadiazol-2-yl)-3-(2-fluoro-4-((3-oxo-3,4-dihydropyrido[2,3-b]pyrazin-8-yl)oxy)phenyl)urea] | ≥ 75% | ≥ 5000 nM
8 | COc1ccccc1-n1nc(C(C)(C)C)cc1NC(=O)Nc1ccc(Oc2ccnc3[nH]c(=O)cnc23)cc1SC [(av), 1-(3-(tert-butyl)-1-(2-methoxyphenyl)-1H-pyrazol-5-yl)-3-(2-(methylthio)-4-((3-oxo-3,4-dihydropyrido[2,3-b]pyrazin-8-yl)oxy)phenyl)urea] | ≥ 75% | 
9 | CSc1cc(Oc2ccnc3[nH]c(=O)cnc23)ccc1NC(=O)Nc1cc(C(C)(C)C)nn1-c1ccccc1Cl [(at), 1-(3-(tert-butyl)-1-(2-chlorophenyl)-1H-pyrazol-5-yl)-3-(2-(methylthio)-4-((3-oxo-3,4-dihydropyrido[2,3-b]pyrazin-8-yl)oxy)phenyl)urea] | ≥ 75% | ≥ 5000 nM
10 | CC(C)(C)c1cc(NC(=O)Nc2ccc(C(=O)c3ccncc3)cc2)n(-c2ccccc2)n1 [(cs), 1-(3-(tert-butyl)-1-phenyl-1 H-pyrazol-5-yl)-3-(4-isonicotinoylphenyl)urea] | 25 to 50% | ≥ 5000 nM
11 | CNC(=O)c1ccc(Oc2ccc(NC(=O)Nc3cc(C(C)(C)C)nn3-c3ccccc3)c(SC)c2)cn1 [(ap), 5-(4-(3-(3-(tert-butyl)-1-phenyl-1H-pyrazol-5-yl)ureido)-3-(methylthio)phenoxy)-N-methylpicolinamide] | 25 to 50% | 500 to 1000 nM
12 | CC(C)(C)c1cc(NC(=O)Nc2ccc(Oc3ccnc4[nH]c(=O)cnc34)cc2)n(-c2ccccc2)n1 [(s), 1-(3-(tert-butyl)-1-phenyl-1 H-pyrazol-5-yl)-3-(4-((3-oxo-3,4-dihydropyrido[2,3-b]pyrazin-8-yl)oxy)phenyl)urea] | 50 to 75% | 500 to 1000 nM
13 | CC(C)(C)c1cc(NC(=O)Nc2cc(Oc3ccnc4[nH]c(=O)cnc34)ccc2F)n(-c2ccccc2)n1 [(cq), 1-(3-(tert-butyl)-1-phenyl-1 H-pyrazol-5-yl)-3-(2-fluoro-5-((3-oxo-3,4-dihydropyrido[2,3-b]pyrazin-8-yl)oxy)phenyl)urea] | ≥ 75% | 500 to 1000 nM
14 | COc1cccc(-n2nc(C(C)(C)C)cc2NC(=O)Nc2ccc(Oc3ccnc4[nH]c(=O)cnc34)cc2SC)c1 [(aw), 1-(3-(tert-butyl)-1-(3-methoxyphenyl)-1 H-pyrazol-5-yl)-3-(2-(methylthio)-4-((3-oxo-3,4-dihydropyrido[2,3-b]pyrazin-8-yl)oxy)phenyl)urea] | ≥ 75% | 500 to 1000 nM
15 | CC(C)(C)c1cc(NC(=O)Nc2ccc(Oc3ccnc4[nH]c(=O)cnc34)c(F)c2F)n(-c2ccccc2)n1 [(bo), 1-(3-(tert-butyl)-1-phenyl-1 H-pyrazol-5-yl)-3-(2,3-difluoro-4-((3-oxo-3,4-dihydropyrido[2,3-b]pyrazin-8-yl)oxy)phenyl)urea] | ≥ 75% | < 500 nM
16 | CSc1cc(Oc2ccnc3c2ncc(=O)n3C)ccc1NC(=O)Nc1cc(C(C)(C)C)nn1-c1ccccc1 [(au), 1-(3-(tert-butyl)-1-phenyl-1H-pyrazol-5-yl)-3-(4-((4-methyl-3-oxo-3,4-dihydropyrido[2,3-b]pyrazin-8-yl)oxy)-2-(methylthio)phenyl)urea] | ≥ 75% | ≥ 5000 nM
17 | CC(C)(C)c1cc(NC(=O)Nc2ccc(Oc3ccnc4[nH]c(=O)cnc34)c(OC(F)(F)F)c2)n(-c2ccccc2)n1 [(cp), 1-(3-(tert-butyl)-1-phenyl-1H-pyrazol-5-yl)-3-(4-((3-oxo-3,4-dihydropyrido[2,3-b]pyrazin-8-yl)oxy)-3-(trifluoromethoxy)phenyl)urea] | 50 to 75% | 500 to 1000 nM
18 | CSc1cc(Oc2ccnc(C(=O)Nc3ccccc3)c2)ccc1NC(=O)Nc1cc(C(C)(C)C)nn1-c1ccccc1 [(co), 4-(4-(3-(3-(tert-butyl)-1-phenyl-1H-pyrazol-5-yl)ureido)-3-(methylthio)phenoxy)-N-phenylpicolinamide] | 25 to 50% | ≥ 5000 nM
19 | Cc1nc2c(Oc3ccc(NC(=O)Nc4cc(C(C)(C)C)nn4-c4ccccc4)c(F)c3)ccnc2c(=O)[nH]1 [(w), 1-(3-(tert-butyl)-1-phenyl-1 H-pyrazol-5-yl)-3-(2-fluoro-4-((2-methyl-4-oxo-3,4-dihydropyrido[3,2-d]pyrimidin-8-yl)oxy)phenyl)urea] | 50 to 75% | 1000 to 5000 nM
20 | CSc1cc(Oc2ccnc3c2CCC(=O)N3)ccc1NC(=O)Nc1cncc(C(F)(F)F)c1 [(cg), 1-(2-(methylthio)-4-((7-oxo-5,6,7,8-tetrahydro-1,8-naphthyridin-4-yl)oxy)phenyl)-3-(5-(trifluoromethyl)pyridin-3-yl)urea] | ≥ 75% | ≥ 5000 nM
21 | CSc1cc(Oc2ccnc3[nH]c(=O)cnc23)ccc1NC(=O)Nc1nc(-c2ccc(F)c(F)c2)cs1 [(ax), 1-(4-(3,4-difluorophenyl)thiazol-2-yl)-3-(2-(methylthio)-4-((3-oxo-3,4-dihydropyrido[2,3-b]pyrazin-8-yl)oxy)phenyl)urea] | 50 to 75% | ≥ 5000 nM
